Experimental data reported in ChEMBL document CHEMBL1154382, “Preliminary SAR analysis of novel antiproliferative N(6),5'-bis-ureidoadenosine derivatives” (2009).

How the values were obtained:
Type in all cases: functional
Details in all cases: values are per cent of control
[1] = test system: U-251; test: Antiproliferative activity against human U251 cells at 10 uM assessed as cell growth inhibition relative to control
[2] = test system: HCT-15; test: Antiproliferative activity against human HCT15 cells at 10 uM assessed as cell growth inhibition relative to control
[3] = test system: MDA-MB-468; test: Antiproliferative activity against human MDA-MB-468 cells at 10 uM assessed as cell growth inhibition relative to control
[4] = test system: DU-145; test: Antiproliferative activity against human DU145 cells at 10 uM assessed as cell growth inhibition relative to control
[5] = test system: SK-MEL-28; test: Antiproliferative activity against human SK-MEL-28 cells at 10 uM assessed as cell growth inhibition relative to control
[6] = test system: ACHN; test: Antiproliferative activity against human ACHN cells at 10 uM assessed as cell growth inhibition relative to control
[7] = test system: SW-620; test: Antiproliferative activity against human SW620 cells at 10 uM assessed as cell growth inhibition relative to control
[8] = test system: NCI-H522; test: Antiproliferative activity against human NCI-H522 cells at 10 uM assessed as cell growth inhibition relative to control
[9] = test system: HCC 2998; test: Antiproliferative activity against human HCC2998 cells at 10 uM assessed as cell growth inhibition relative to control
[10] = test system: HCT-116; test: Antiproliferative activity against human HCT116 cells at 10 uM assessed as cell growth inhibition relative to control
[11] = test system: NCI-H460; test: Antiproliferative activity against human NCI-H460 cells at 10 uM assessed as cell growth inhibition relative to control
[12] = test system: TK-10; test: Antiproliferative activity against human TK10 cells at 10 uM assessed as cell growth inhibition relative to control
[13] = test system: A498; test: Antiproliferative activity against human A498 cells at 10 uM assessed as cell growth inhibition relative to control
[14] = test system: SK-OV-3; test: Antiproliferative activity against human SKOV3 cells at 10 uM assessed as cell growth inhibition relative to control
[15] = test system: OVCAR-8; test: Antiproliferative activity against human OVCAR8 cells at 10 uM assessed as cell growth inhibition relative to control
[16] = test system: SN12C; test: Antiproliferative activity against human SN12C cells at 10 uM assessed as cell growth inhibition relative to control
[17] = test system: RXF 393; test: Antiproliferative activity against human RXF393 cells at 10 uM assessed as cell growth inhibition relative to control
[18] = Antiproliferative activity against human Hs 578T cells at 10 uM assessed as cell growth inhibition relative to control
[19] = test system: UACC-62; test: Antiproliferative activity against human UACC62 cells at 10 uM assessed as cell growth inhibition relative to control
[20] = test system: UACC-257; test: Antiproliferative activity against human UACC257 cells at 10 uM assessed as cell growth inhibition relative to control
[21] = test system: SF-268; test: Antiproliferative activity against human SF268 cells at 10 uM assessed as cell growth inhibition relative to control
[22] = test system: MDA-MB-231; test: Antiproliferative activity against human MDA-MB-231 cells at 10 uM assessed as cell growth inhibition relative to control
[23] = test system: PC-3; test: Antiproliferative activity against human PC3 cells at 10 uM assessed as cell growth inhibition relative to control
[24] = test system: SK-MEL-5; test: Antiproliferative activity against human SK-MEL-5 cells at 10 uM assessed as cell growth inhibition relative to control
[25] = test system: SK-MEL-2; test: Antiproliferative activity against human SK-MEL-2 cells at 10 uM assessed as cell growth inhibition relative to control
[26] = test system: COLO 205; test: Antiproliferative activity against human COLO205 cells at 10 uM assessed as cell growth inhibition relative to control
[27] = test system: OVCAR-4; test: Antiproliferative activity against human OVCAR4 cells at 10 uM assessed as cell growth inhibition relative to control
[28] = test system: OVCAR-3; test: Antiproliferative activity against human OVCAR-3 cells at 10 uM assessed as cell growth inhibition relative to control
[29] = test system: SNB-75; test: Antiproliferative activity against human SNB75 cells at 10 uM assessed as cell growth inhibition relative to control
[30] = test system: HOP-92; test: Antiproliferative activity against human HOP92 cells at 10 uM assessed as cell growth inhibition relative to control
[31] = test system: NCI-H226; test: Antiproliferative activity against human NCI-H226 cells at 10 uM assessed as cell growth inhibition relative to control
[32] = test system: OVCAR-5; test: Antiproliferative activity against human OVCAR5 cells at 10 uM assessed as cell growth inhibition relative to control
[33] = test system: CAKI-1; test: Antiproliferative activity against human Caki1 cells at 10 uM assessed as cell growth inhibition relative to control
[34] = test system: UO-31; test: Antiproliferative activity against human UO31 cells at 10 uM assessed as cell growth inhibition relative to control
[35] = test system: BT-549; test: Antiproliferative activity against human BT549 cells at 10 uM assessed as cell growth inhibition relative to control
[36] = test system: HOP-62; test: Antiproliferative activity against human HOP62 cells at 10 uM assessed as cell growth inhibition relative to control
[37] = test system: SNB-19; test: Antiproliferative activity against human SNB19 cells at 10 uM assessed as cell growth inhibition relative to control
[38] = test system: NCI-H23; test: Antiproliferative activity against human NCI-H23 cells at 10 uM assessed as cell growth inhibition relative to control
[39] = test system: LOX IMVI; test: Antiproliferative activity against human LOXIMVI cells at 10 uM assessed as cell growth inhibition relative to control
[40] = test system: CCRF-CEM; test: Antiproliferative activity against human CCRF-CEM cells at 10 uM assessed as cell growth inhibition relative to control
[41] = test system: MCF7; test: Antiproliferative activity against human MCF7 cells at 10 uM assessed as cell growth inhibition relative to control
[42] = test system: M14; test: Antiproliferative activity against human M14 cells at 10 uM assessed as cell growth inhibition relative to control
[43] = test system: Malme-3M; test: Antiproliferative activity against human MALME-3M cells at 10 uM assessed as cell growth inhibition relative to control
[44] = test system: 786-0; test: Antiproliferative activity against human 786-0 cells at 10 uM assessed as cell growth inhibition relative to control
[45] = test system: IGROV-1; test: Antiproliferative activity against human IGROV1 cells at 10 uM assessed as cell growth inhibition relative to control
[46] = test system: MOLT-4; test: Antiproliferative activity against human MOLT4 cells at 10 uM assessed as cell growth inhibition relative to control
[47] = test system: NCI-H322M; test: Antiproliferative activity against human NCI-H322M cells at 10 uM assessed as cell growth inhibition relative to control
[48] = test system: SF-295; test: Antiproliferative activity against human SF295 cells at 10 uM assessed as cell growth inhibition relative to control
[49] = Antiproliferative activity against human […] cells at 10 uM assessed as cell growth inhibition relative to control
[50] = test system: EKVX; test: Antiproliferative activity against human EKVX cells at 10 uM assessed as cell growth inhibition relative to control
[51] = test system: K562; test: Antiproliferative activity against human K562 cells at 10 uM assessed as cell growth inhibition relative to control
[52] = test system: KM12; test: Antiproliferative activity against human KM12 cells at 10 uM assessed as cell growth inhibition relative to control
[53] = test system: HT-29; test: Antiproliferative activity against human HT-29 cells at 10 uM assessed as cell growth inhibition relative to control
[54] = test system: SF-539; test: Antiproliferative activity against human SF539 cells at 10 uM assessed as cell growth inhibition relative to control
[55] = test system: HL-60(TB); test: Antiproliferative activity against human HL-60(TB) cells at 10 uM assessed as cell growth inhibition relative to control
[56] = test system: T47D; test: Antiproliferative activity against human T47D cells at 10 uM assessed as cell growth inhibition relative to control
[57] = test system: A549; test: Antiproliferative activity against human A549 cells at 10 uM assessed as cell growth inhibition relative to control

CCOC(=O)C[C@H]1[C@@H](O[Si](C)(C)C(C)(C)C)[C@H](n2cnc3c(N)ncnc32)O[C@@H]1CO
growth, % of control at 10 µM [1]: 99%
growth, % of control at 10 µM [2]: 91%
growth, % of control at 10 µM [3]: 94%
growth, % of control at 10 µM [4]: 93%
growth, % of control at 10 µM [5]: 112%
growth, % of control at 10 µM [6]: 102%
growth, % of control at 10 µM [7]: 103%
growth, % of control at 10 µM [8]: 92%
growth, % of control at 10 µM [9]: 104%
growth, % of control at 10 µM [10]: 94%
growth, % of control at 10 µM [11]: 101%
growth, % of control at 10 µM [12]: 94%
growth, % of control at 10 µM [13]: 98%
growth, % of control at 10 µM [14]: 103%
growth, % of control at 10 µM [15]: 103%
growth, % of control at 10 µM [16]: 85%
growth, % of control at 10 µM [17]: 112%
growth, % of control at 10 µM [18]: 102%
growth, % of control at 10 µM [19]: 73%
growth, % of control at 10 µM [20]: 105%
growth, % of control at 10 µM [21]: 98%
growth, % of control at 10 µM [22]: 90%
growth, % of control at 10 µM [23]: 85%
growth, % of control at 10 µM [24]: 81%
growth, % of control at 10 µM [25]: 106%
growth, % of control at 10 µM [26]: 109%
growth, % of control at 10 µM [27]: 97%
growth, % of control at 10 µM [28]: 98%
growth, % of control at 10 µM [29]: 75%
growth, % of control at 10 µM [30]: 81%
growth, % of control at 10 µM [31]: 90%
growth, % of control at 10 µM [32]: 101%
growth, % of control at 10 µM [33]: 92%
growth, % of control at 10 µM [34]: 72%
growth, % of control at 10 µM [35]: 79%
growth, % of control at 10 µM [36]: 91%
growth, % of control at 10 µM [37]: 103%
growth, % of control at 10 µM [38]: 107%
growth, % of control at 10 µM [39]: 92%
growth, % of control at 10 µM [40]: 83%
growth, % of control at 10 µM [41]: 89%
growth, % of control at 10 µM [42]: 99%
growth, % of control at 10 µM [43]: 93%
growth, % of control at 10 µM [44]: 97%
growth, % of control at 10 µM [45]: 90%
growth, % of control at 10 µM [46]: 74%
growth, % of control at 10 µM [47]: 91%
growth, % of control at 10 µM [48]: 97%
growth, % of control at 10 µM [49]: 99%
growth, % of control at 10 µM [50]: 75%
growth, % of control at 10 µM [51]: 84%
growth, % of control at 10 µM [52]: 109%
growth, % of control at 10 µM [53]: 98%
growth, % of control at 10 µM [54]: 91%
growth, % of control at 10 µM [55]: 89%
growth, % of control at 10 µM [56]: 82%
growth, % of control at 10 µM [57]: 100%
